pEC50: −log10 of the molar value.
Biological target: human activated kallikrein enzyme (plasma kallikrein) (Homo sapiens (Human), UniProt P03952)
Assay: Inhibition of human activated plasma kallikrein, fluorogenic peptide substrate assay, 500 pM enzyme format
Format: biochemical
Conditions: 500 pM activated kallikrein enzyme, 300 uM Pro-Phe-Arg-7-amido-4-methylcoumarin substrate, 30 min preincubation, 10 min at RT; read-out: Primary Dose Response Assay: Average EC50
In short: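 Buffer 20 mM Tris pH 7.5, EDTA, NaCl, PEG-400, Triton X-100; 300 uM Pro-Phe-Arg-AMC; enzyme–inhibitor preincubation 30 min RT. Format one: 500 pM kallikrein, 10 min RT reaction; format two: 5 pM kallikrein, 18 h RT reaction. Fluorescence read at 460 nm (380 nm excitation).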

Sequence of human activated kallikrein enzyme (plasma kallikrein) (P03952 391-638): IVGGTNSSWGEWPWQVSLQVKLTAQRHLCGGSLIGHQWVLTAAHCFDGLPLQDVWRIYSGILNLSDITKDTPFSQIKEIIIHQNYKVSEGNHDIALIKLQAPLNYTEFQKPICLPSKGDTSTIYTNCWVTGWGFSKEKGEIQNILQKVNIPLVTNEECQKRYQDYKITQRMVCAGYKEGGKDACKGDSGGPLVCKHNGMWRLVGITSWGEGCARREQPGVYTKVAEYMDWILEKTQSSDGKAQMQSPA
Sequence of human activated kallikrein enzyme (plasma kallikrein) (P03952 20-390 partner): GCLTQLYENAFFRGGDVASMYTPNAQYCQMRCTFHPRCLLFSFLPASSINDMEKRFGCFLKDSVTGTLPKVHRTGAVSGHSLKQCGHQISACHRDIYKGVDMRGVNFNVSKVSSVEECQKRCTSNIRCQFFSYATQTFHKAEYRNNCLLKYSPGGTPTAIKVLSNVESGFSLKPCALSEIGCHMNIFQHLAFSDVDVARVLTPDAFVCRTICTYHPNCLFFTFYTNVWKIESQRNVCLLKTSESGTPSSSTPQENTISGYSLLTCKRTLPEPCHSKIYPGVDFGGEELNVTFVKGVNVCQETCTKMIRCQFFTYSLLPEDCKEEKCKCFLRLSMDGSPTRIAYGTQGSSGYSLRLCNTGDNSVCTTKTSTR

| SMILES | pEC50 |
| --- | --- |
| O=C(O)c1ccc(-n2c(Cn3cc(C(=O)NCc4ncn5ccc(Cl)c(F)c45)nn3)cc3cc(C4CC4)ccc32)cc1 [Example I-259, 4-(2-((4-(((7-chloro-8-fluoroimidazo[1,5-a]pyridin-1-yl)methyl)carbamoyl)-1H-1,2,3-triazol-1-yl)methyl)-5-cyclopropyl-1H-indol-1-yl)benzoic acid] | 8.00 to 9.00 |
| CCOC(=O)c1nc(C(=O)NCc2ncn3ccc(Cl)c(F)c23)cn1Cc1cn2cc(C3CC3)ccc2n1 [Example I-260] | > 9.00 |
| O=C(NCc1ncn2ccc(Cl)c(F)c12)c1cn(Cc2cn3cc(C4CC4)ccc3n2)c(C(=O)O)n1 [Example I-261, 4-(((7-chloro-8-fluoroimidazo[1,5-a]pyridin-1-yl)methyl)carbamoyl)-1-((6-cyclopropylimidazo[1,2-a]pyridin-2-yl)methyl)-1H-imidazole-2-carboxylic acid] | > 9.00 |
| O=C(NCc1ncn2ccc(Cl)c(F)c12)c1cn(Cc2cc3cc(C4CC4)cc(N4CCCC4=O)n3n2)nn1 [Example I-262, N-((7-chloro-8-fluoroimidazo[1,5-a]pyridin-1-yl)methyl)-1-((5-cyclopropyl-7-(2-oxopyrrolidin-1-yl)pyrazolo[1,5-a]pyridin-2-yl)methyl)-1H-1,2,3-triazole-4-carboxamide] | > 9.00 |
| O=C(NCc1ncn2ccc(Cl)c(F)c12)c1cn(Cc2cn3cc(C4CC4)cc(-c4cncs4)c3n2)nn1 [Example I-263, N-((7-chloro-8-fluoroimidazo[1,5-a]pyridin-1-yl)methyl)-1-((6-cyclopropyl-8-(thiazol-5-yl)imidazo[1,2-a]pyridin-2-yl)methyl)-1H-1,2,3-triazole-4-carboxamide] | > 9.00 |
| O=C(NCc1ncn2ccc(Cl)c(F)c12)c1cn(Cc2cn3cc(C4CC4)cc(N4CCOC(C(=O)O)C4)c3n2)nn1 (centres unmarked) [Example I-264, 4-(2-((4-(((7-chloro-8-fluoroimidazo[1,5-a]pyridin-1-yl)methyl)carbamoyl)-1H-1,2,3-triazol-1-yl)methyl)-6-cyclopropylimidazo[1,2-a]pyridin-8-yl)morpholine-2-carboxylic acid] | > 9.00 |
| COC(=O)C1CN(c2cc(C3CC3)nn3cc(Cn4cc(C(=O)NCc5ncn6ccc(Cl)c(F)c56)nn4)nc23)C1 [Example I-265a, methyl 1-(2-((4-(((7-chloro-8-fluoroimidazo[1,5-a]pyridin-1-yl)methyl)carbamoyl)-1H-1,2,3-triazol-1-yl)methyl)-6-cyclopropylimidazo[1,2-b]pyridazin-8-yl)azetidine-3-carboxylate] | > 9.00 |
| O=C(NCc1ncn2ccc(Cl)c(F)c12)c1cn(Cc2cn3nc(C4CC4)cc(N4CC(C(=O)O)C4)c3n2)nn1 [Example I-265b, 1-(2-((4-(((7-chloro-8-fluoroimidazo[1,5-a]pyridin-1-yl)methyl)carbamoyl)-1H-1,2,3-triazol-1-yl)methyl)-6-cyclopropylimidazo[1,2-b]pyridazin-8-yl)azetidine-3-carboxylic acid] | > 9.00 |
| COC(=O)C1CCN(c2cc(C3CC3)nn3cc(Cn4cc(C(=O)NCc5ncn6ccc(Cl)c(F)c56)nn4)nc23)C1 (centres unmarked) [Example I-266, methyl 1-(2-((4-(((7-chloro-8-fluoroimidazo[1,5-a]pyridin-1-yl)methyl)carbamoyl)-1H-1,2,3-triazol-1-yl)methyl)-6-cyclopropylimidazo[1,2-b]pyridazin-8-yl)pyrrolidine-3-carboxylate] | > 9.00 |
| O=C(NCc1ncn2ccc(Cl)c(F)c12)c1cn(Cc2cn3nc(C4CC4)cc(N4CCC(C(=O)O)C4)c3n2)nn1 (centres unmarked) [Example I-267, 1-(2-((4-(((7-chloro-8-fluoroimidazo[1,5-a]pyridin-1-yl)methyl)carbamoyl)-1H-1,2,3-triazol-1-yl)methyl)-6-cyclopropylimidazo[1,2-b]pyridazin-8-yl)pyrrolidine-3-carboxylic acid] | > 9.00 |
| CCOC(=O)c1c(Cn2cc(C(=O)NCc3ncn4ccc(Cl)c(F)c34)nn2)cc2ccc(C3CC3)cn12 [Example I-268, ethyl 2-((4-(((7-chloro-8-fluoroimidazo[1,5-a]pyridin-1-yl)methyl)carbamoyl)-1H-1,2,3-triazol-1-yl)methyl)-6-cyclopropylindolizine-3-carboxylate] | 8.00 to 9.00 |
| Cc1c(C)n(C)c2ccc(Cn3cc(C(=O)NCc4ncn5ccc(Cl)c(F)c45)nn3)cc12 [Example I-269, N-((7-chloro-8-fluoroimidazo[1,5-a]pyridin-1-yl)methyl)-1-((1,2,3-trimethyl-1H-indol-5-yl)methyl)-1H-1,2,3-triazole-4-carboxamide] | 8.00 to 9.00 |
| COC(=O)c1cc(C(=O)NCc2ncn3ccc(Cl)c(F)c23)cn1Cc1cn2cc(C3CC3)ccc2n1 [Example I-270a, methyl 4-(((7-chloro-8-fluoroimidazo[1,5-a]pyridin-1-yl)methyl)carbamoyl)-1-((6-cyclopropylimidazo[1,2-a]pyridin-2-yl)methyl)-1H-pyrrole-2-carboxylate] | 8.00 to 9.00 |
| O=C(NCc1ncn2ccc(Cl)c(F)c12)c1cc(C(=O)O)n(Cc2cn3cc(C4CC4)ccc3n2)c1 [Example I-270b, 4-(((7-chloro-8-fluoroimidazo[1,5-a]pyridin-1-yl)methyl)carbamoyl)-1-((6-cyclopropylimidazo[1,2-a]pyridin-2-yl)methyl)-1H-pyrrole-2-carboxylic acid] | > 9.00 |
| O=C(NCc1ncn2ccc(Cl)c(F)c12)c1cn(Cc2cn3cc(C4CC4)ccc3n2)cn1 [Example I-271, N-((7-chloro-8-fluoroimidazo[1,5-a]pyridin-1-yl)methyl)-1-((6-cyclopropylimidazo[1,2-a]pyridin-2-yl)methyl)-1H-imidazole-4-carboxamide] | > 9.00 |
| COC(=O)c1c(Cn2cc(C(=O)NCc3ncn4ccc(Cl)c(F)c34)nn2)[nH]c2cc(C3CC3)ccc12 [Example I-272, methyl 2-((4-(((7-chloro-8-fluoroimidazo[1,5-a]pyridin-1-yl)methyl)carbamoyl)-1H-1,2,3-triazol-1-yl)methyl)-6-cyclopropyl-1H-indole-3-carboxylate] | > 9.00 |
| N#Cc1cc(Cn2cc(C(=O)NCc3ncn4ccc(Cl)c(F)c34)nn2)cc2cc(C3CC3)cnc12 [Example I-273, N-((7-chloro-8-fluoroimidazo[1,5-a]pyridin-1-yl)methyl)-1-((8-cyano-3-cyclopropylquinolin-6-yl)methyl)-1H-1,2,3-triazole-4-carboxamide] | 8.00 to 9.00 |
| O=C(NCc1ncn2ccc(Cl)c(F)c12)c1cn(Cc2[nH]c3cc(C4CC4)ccc3c2C(=O)O)nn1 [Example I-274, 2-((4-(((7-chloro-8-fluoroimidazo[1,5-a]pyridin-1-yl)methyl)carbamoyl)-1H-1,2,3-triazol-1-yl)methyl)-6-cyclopropyl-1H-indole-3-carboxylic acid] | 5.70 to 7.00 |
| NC(=O)c1cc(Cn2cc(C(=O)NCc3ncn4ccc(Cl)c(F)c34)nn2)cc2cc(C3CC3)cnc12 [Example I-275, 6-((4-(((7-chloro-8-fluoroimidazo[1,5-a]pyridin-1-yl)methyl)carbamoyl)-1H-1,2,3-triazol-1-yl)methyl)-3-cyclopropylquinoline-8-carboxamide] | 7.00 to 8.00 |
| O=C(NCc1ncn2ccc(Cl)c(F)c12)c1ccn(Cc2cn3cc(C4CC4)ccc3n2)c1 [Example I-276, N-((7-chloro-8-fluoroimidazo[1,5-a]pyridin-1-yl)methyl)-1-((6-cyclopropylimidazo[1,2-a]pyridin-2-yl)methyl)-1H-pyrrole-3-carboxamide] | > 9.00 |

Reference: patent US10730874B2 (Shire Human Genetic Therapies, Inc., priority 2018, dated 2020)
